Reference: patent US10059720B2, “Pyridine derivative” (Astellas Pharma Inc., priority 2014, dated 2018)
Structures can show the parent of a compound that is named as a salt. Where two headings read alike, the source gives them in different places.

Assays:
IRAP = IRAP (Rattus norvegicus (Rat), UniProt P97629); test: Inhibition of IRAP activity (AVP degradation by rat epididymal fat pad microsomes, MALDI-MS); conditions: read-out: IRAP IC50
[1] = Antidiuresis test in continuously hydrated rats with additional water loading (oral administration); type: in vivo, Male Wistar rats; conditions: for change of plasma sodium level (in words): after three hours and four hours of the administration, additional water loads; for urine production after additional water loads: groups with additional water loads (15 mL/kg at 2 h and 3 h); for urine production after additional water loads / plasma sodium level, 3 hours after administration / plasma sodium level, 4 hours after administration / urine production: EX-a 100 mg/kg, EX-b 30 mg/kg; for urine production after additional water loads / urine production: dDAVP 30 μg/kg oral; for plasma sodium level, 3 hours after administration / plasma sodium level, 4 hours after administration: groups with additional water loads, oral, dDAVP 30 μg/kg; for urine production: groups without additional water loads, after two hours of the administration, maintained until four hours
Procedure: FIG. 1 is a graph showing temporal changes in urine volumes of individual groups in the pharmacological test (4): antidiuresis test in continuously hydrated rats with additional water loading. The vertical axis represents urine volume (mL/30 min) and the horizontal axis represents elapsed time (hr) from the administration of the test compound. Groups represented by “ . . . +Water” are water-loaded groups. The arrows in the horizontal axis represent the time points of additional water-loading.
(4) Antidiuresis Test in Continuously Hydrated Rats with Additional Water Loading (Oral Administration)
Male Wistar rats were used in the test. Initially, water load with 15 mL/kg of distilled water was forcedly administered to the rats. Every 30 minutes after loading water, urine volume collected during 30 minutes was measured and distilled water was forcedly administered to the rats in an amount equal to the urine volume excreted during the last 30 minutes. This water load procedure was repeated to the termination of the test to maintain the diuretic state. […] The individual groups were further divided into two subgroups, and additional distilled water of 15 mL/kg load was forcedly administered to one of the subgroups two times, i.e. at two hours and three hours after the administration. For comparison, the Vehicle group administered only with the vehicle was also subjected to the additional administrations of water load. Blood was collected from a half of the rats in each group subjected to additional administrations of water load, at three hours after the administration (immediately before the second additional water load) and from the other half at four hours after the administration, and plasma sodium levels were measured with an automatic electrolyte analyzer to determine the plasma sodium levels at three hours and four hours after the administration, respectively (each group consisted of seven to eight rats). Changes in the urine volume in individual groups are shown in FIG. 1, and the plasma sodium levels of the group administered with additional water loads are shown in Table 4.

[2] = rat fat pad microsomes, AVP 25 μM, 1 h at 37° C.

Sequence of IRAP (P97629 whole entry): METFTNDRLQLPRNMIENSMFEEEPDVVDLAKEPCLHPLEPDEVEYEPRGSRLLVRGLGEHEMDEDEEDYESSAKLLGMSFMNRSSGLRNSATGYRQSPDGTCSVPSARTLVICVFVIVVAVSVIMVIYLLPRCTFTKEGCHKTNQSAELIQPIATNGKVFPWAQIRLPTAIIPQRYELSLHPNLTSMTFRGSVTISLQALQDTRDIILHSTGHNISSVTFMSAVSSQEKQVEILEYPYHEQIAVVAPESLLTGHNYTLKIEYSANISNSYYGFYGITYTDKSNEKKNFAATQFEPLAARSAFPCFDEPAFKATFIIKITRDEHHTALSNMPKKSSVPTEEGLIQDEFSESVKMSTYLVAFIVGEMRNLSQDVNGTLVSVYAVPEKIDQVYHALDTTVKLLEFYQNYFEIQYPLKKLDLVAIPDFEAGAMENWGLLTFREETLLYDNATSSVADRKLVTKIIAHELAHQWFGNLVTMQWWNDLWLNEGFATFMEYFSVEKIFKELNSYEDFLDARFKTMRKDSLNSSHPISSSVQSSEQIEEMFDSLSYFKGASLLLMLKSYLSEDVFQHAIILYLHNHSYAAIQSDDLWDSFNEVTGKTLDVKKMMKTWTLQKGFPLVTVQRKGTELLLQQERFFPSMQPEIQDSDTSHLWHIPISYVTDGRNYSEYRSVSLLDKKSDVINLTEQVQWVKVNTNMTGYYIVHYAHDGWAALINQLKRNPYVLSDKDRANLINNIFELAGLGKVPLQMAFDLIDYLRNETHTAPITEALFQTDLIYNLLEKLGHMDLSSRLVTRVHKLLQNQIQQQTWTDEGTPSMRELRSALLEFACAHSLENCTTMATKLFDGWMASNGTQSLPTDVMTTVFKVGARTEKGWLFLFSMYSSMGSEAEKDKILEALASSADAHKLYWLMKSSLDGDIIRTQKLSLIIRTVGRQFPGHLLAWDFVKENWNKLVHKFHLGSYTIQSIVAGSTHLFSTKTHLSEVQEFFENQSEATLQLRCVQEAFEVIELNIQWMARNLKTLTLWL

Row | IC50 (IRAP; [2]) | Structure (SMILES) | also measured
1 | 8.8 nM | Cc1ccc(OC[C@H](N)[C@](O)(Cc2cc(OC3CCCCC3)ccn2)C(=O)O)nc1 [Example 77] | –
2 | 200 nM | COc1cccc(Oc2ccnc(C[C@](O)(C(=O)O)[C@@H](N)CC(C)C)c2)c1 [Example 101] | –
3 | 110 nM | C[C@H]1CC[C@H](Oc2ccnc(C[C@](O)(C(=O)O)[C@@H](N)Cn3cccn3)c2)CC1 [Example 85] | –
4 | 15 nM | N[C@@H](COc1ccc(F)cc1)[C@](O)(Cc1cc(NC2CCCCC2)ccn1)C(=O)O [Example 91] | –
5 | 130 nM | COc1cc(C[C@](O)(C(=O)O)[C@@H](N)CC(C)C)ncc1COCc1ccccc1 [Example 57] | –
6 | 13 nM | N[C@@H](COc1cccc(Br)c1)[C@](O)(Cc1cc(OC2CCCCC2)ccn1)C(=O)O [Example 70] | –
7 | 200 nM | CC(C)C[C@H](N)[C@](O)(Cc1cc(O)ccn1)C(=O)O [7(2), (2R,3S)-3-amino-2-hydroxy-2-[(4-hydroxypyridin-2-yl)methyl]-5-methylhexanoic acid] | –
8 | 1.9 nM | CC(C)CC[C@H](N)[C@](O)(Cc1cc(OC2CCCCC2)ccn1)C(=O)O [Example 66] | –
9 | 170 nM | CC(C)C[C@H](N)[C@@]1(Cc2cc(O[C@H]3CC[C@H](C)CC3)ccn2)OC(C)(C)OC1=O [Example 8, (5R)-5-[(1S)-1-amino-3-methylbutyl]-2,2-dimethyl-5-({4-[(trans-4-methylcyclohexyl)oxy]pyridin-2-yl}methyl)-1,3-dioxolan-4-one dihydrochloride] | –
10 | 2.8 nM | CC(C)C[C@H](N)[C@](O)(Cc1cc(OCCOC2CCCCC2)ccn1)C(=O)O [Example 97] | –
11 | 250 nM | COc1ccnc(C[C@](O)(C(=O)O)[C@@H](N)CC(C)C)c1C [Example 22] | –
12 | 33 nM | N[C@@H](COC1CCCCC1)[C@](O)(Cc1cc(OCCC2CC2)ccn1)C(=O)O [Example 79] | –
13 | 5.3 nM | N[C@@H](COCCC(F)(F)F)[C@](O)(Cc1cc(OC2CCCCC2)ccn1)C(=O)O [Example 74] | –

The remaining lines, values behind:

Row | Structure (SMILES) | IC50 (IRAP; [2]) | also measured
14 | CC(C)C[C@H](N)[C@](O)(Cc1cc2c(cn1)OCCO2)C(=O)O [Example 62] | 290 nM | –
15 | COc1cc(F)cc(OC[C@H](N)[C@](O)(Cc2cc(OC3CCCCC3)ccn2)C(=O)O)c1 [Example 31] | 27 nM | –
16 | CS(=O)(=O)c1ccc(-c2ccc([C@H](N)[C@](O)(Cc3cc(OC4CCCCC4)ccn3)C(=O)O)cc2)cc1 [Example 45] | 0.42 nM | –
17 | N[C@@H](COCc1ccccc1)[C@](O)(Cc1cc(OC2CCCCC2)ccn1)C(=O)O [Example 51] | 13 nM | –
18 | N[C@@H](c1ccc(N2CCOCC2)cc1)[C@](O)(Cc1cc(OC2CCCCC2)ccn1)C(=O)O [Example 48] | 5.2 nM | –
19 | N[C@@H](c1ccc(C2CC2)cc1)[C@](O)(Cc1cc(OC2CCCCC2)ccn1)C(=O)O [Example 23] | 8.2 nM | –
20 | CC(C)C[C@H](N)[C@](O)(Cc1cc(O[C@H]2CC[C@H](C)CC2)ccn1)C(=O)O (relative stereo) [EX-a, (2R,3S)-3-amino-2-hydroxy-5-methyl-2-({4-[(trans-4-methylcyclohexyl)oxy]pyridin-2-yl}methyl)hexanoic acid] | – | change of plasma sodium level (in words) [1]: slightly decreased; urine production after additional water loads [1]: resumed after administration of the additional water loads; plasma sodium level, 3 hours after administration [1]: 134.9 ± 0.4 mmol/L; plasma sodium level, 4 hours after administration [1]: 133.2 ± 0.7 mmol/L; urine production [1]: almost stopped
21 | NC(=O)CC[C@@H]1NC(=O)[C@H](Cc2ccccc2)NC(=O)[C@H](Cc2ccc(O)cc2)NC(=O)CCSSC[C@@H](C(=O)N2CCC[C@H]2C(=O)N[C@H](CCCN=C(N)N)C(=O)NCC(N)=O)NC(=O)[C@H](CC(N)=O)NC1=O [dDAVP, Desmopressin, reference compound] | – | change of plasma sodium level (in words) [1]: more significant decreases; urine production after additional water loads [1]: not resumed; plasma sodium level, 3 hours after administration [1]: 132.0 ± 0.4 mmol/L; plasma sodium level, 4 hours after administration [1]: 128.0 ± 0.3 mmol/L; urine production [1]: almost stopped
22 | N[C@@H](c1ccc(S(=O)(=O)C2CC2)cc1)[C@](O)(Cc1cc(OC2CCCCC2)ccn1)C(=O)O [Example 24] | 6.2 nM | –
23 | COc1cc(C[C@](O)(C(=O)O)[C@@H](N)CC(C)C)ncc1Br [Example 53] | 290 nM | –
24 | CC(C)C[C@H](N)[C@](O)(Cc1cc2c(cn1)ncn2CCC1CCCCC1)C(=O)O [Example 33] | 2.5 nM | –
25 | N[C@@H](/C=C/c1ccccc1)[C@](O)(Cc1cc(OC2CCCCC2)ccn1)C(=O)O [Example 40] | 8 nM | –
26 | COCc1ccc(OC[C@H](N)[C@](O)(Cc2cc(OC3CCCCC3)ccn2)C(=O)O)cc1 [Example 30] | 11 nM | –
27 | N[C@@H](c1ccc(-c2ccccc2)cc1)[C@](O)(Cc1cc(OC2CCCCC2)ccn1)C(=O)O [Example 36] | 4.9 nM | –
28 | COCc1ccc([C@H](N)[C@](O)(Cc2cc(OC3CCCCC3)ccn2)C(=O)O)cc1 [Example 50] | 14 nM | –
29 | COCCCCC[C@H](N)[C@](O)(Cc1cc(OC2CCCCC2)ccn1)C(=O)O [Example 75] | 1.2 nM | –
30 | CCSC[C@H](N)[C@](O)(Cc1cc(O[C@H]2CC[C@H](C)CC2)ccn1)C(=O)O [EX-b, (2R,3R)-3-amino-4-(ethylsulfanyl)-2-hydroxy-2-({4-[(trans-4-methylcyclohexyl)oxy]pyridin-2-yl}methyl)butanoic acid] | – | change of plasma sodium level (in words) [1]: slightly decreased; urine production after additional water loads [1]: resumed after administration of the additional water loads; plasma sodium level, 3 hours after administration [1]: 140.4 ± 0.4 mmol/L; plasma sodium level, 4 hours after administration [1]: 139.2 ± 0.5 mmol/L; urine production [1]: almost stopped
31 | N[C@@H](c1ccc(Br)cc1)[C@](O)(Cc1cc(OC2CCCCC2)ccn1)C(=O)O [Example 68] | – | IC50 (IRAP; value marked *: measured using a dihydrochloride salt of the compound of the Example): 5.4 nM
32 | NC(COc1ccccc1Br)C(O)(Cc1cc(OC2CCCCC2)ccn1)C(=O)O (centres unmarked) [Example 71] | 15 nM | –
